Reference: the CheMixHub viscosity set
“And” between values parts separate entries of the source, which are not always exact repeats. Identical values can stand only once. ± gives the uncertainty stated by the source.

Assay: xn = mol fraction of the nth substance listed

CCCCCCCCCC + CCCCCCC
Settings | viscosity
293.15 K, 100 kPa, x1 = 0.3 | 0.506 ± 0.022 mPa·s
293.15 K, 101.33 kPa, x2 = 0.321 | 0.725 ± 0.01 mPa·s
293.15 K, 101.33 kPa, x2 = 0.587 | 0.584 ± 0.008 mPa·s
293.15 K, 101.33 kPa, x2 = 0.81 | 0.489 ± 0.007 mPa·s
294.62 K, 101.3 kPa, x2 = 0.49 | 0.64 ± 0.0091 mPa·s
298.15 K, 101.33 kPa, x2 = 0.0985 | 0.8051 ± 0.021 mPa·s
298.15 K, 101.33 kPa, x2 = 0.2017 | 0.745 ± 0.019 mPa·s
298.15 K, 101.33 kPa, x2 = 0.3053 | 0.6806 ± 0.018 mPa·s
298.15 K, 101.33 kPa, x2 = 0.4073 | 0.6363 ± 0.017 mPa·s
298.15 K, 101.33 kPa, x2 = 0.5076 | 0.5891 ± 0.016 mPa·s
298.15 K, 101.33 kPa, x2 = 0.6069 | 0.5466 ± 0.015 mPa·s
298.15 K, 101.33 kPa, x2 = 0.7083 | 0.4983 ± 0.014 mPa·s
298.15 K, 101.33 kPa, x2 = 0.8023 | 0.4575 ± 0.013 mPa·s
298.15 K, 101.33 kPa, x2 = 0.903 | 0.4242 ± 0.012 mPa·s
303.11 K, 100 kPa, x2 = 0.77 | 0.4628 ± 0.0071 mPa·s and 0.4626 ± 0.0072 mPa·s
303.15 K, 101.3 kPa, x2 = 0.77 | 0.4628 ± 0.0071 mPa·s
303.17 K, 100 kPa, x2 = 0.49 | 0.5761 ± 0.0085 mPa·s and 0.5762 ± 0.0085 mPa·s
303.17 K, 101.3 kPa, x2 = 0.49 | 0.5761 ± 0.0085 mPa·s
313.11 K, 101.3 kPa, x2 = 0.49 | 0.5111 ± 0.0078 mPa·s
313.15 K, 100 kPa, x1 = 0.3 | 0.393 ± 0.018 mPa·s
313.18 K, 101.3 kPa, x2 = 0.77 | 0.4127 ± 0.0067 mPa·s
323.15 K, 100 kPa, x2 = 0.49 | 0.4588 ± 0.0072 mPa·s
323.15 K, 101.3 kPa, x2 = 0.49 | 0.4588 ± 0.0072 mPa·s

CCOC(=O)C(C)O (stereo not given) + CN1CCCC1=O
viscosity [mPa·s], 101 kPa
Settings | 293.15 K | 313.15 K
x1 = 0.0999 | – | 1.525 ± 0.015
x1 = 0.3001 | 2.585 ± 0.025 | 1.765 ± 0.017

CS(C)=O + CO
Settings | viscosity [mPa·s]
298.15 K, 101 kPa, x1 = 0.2 | 0.705 ± 0.012
298.15 K, 101 kPa, x1 = 0.4 | 0.942 ± 0.016
298.15 K, 101 kPa, x1 = 0.6 | 1.212 ± 0.021
298.15 K, 101 kPa, x1 = 0.8 | 1.581 ± 0.026
298.15 K, 101.3 kPa, x1 = 0.0439 | 0.583 ± 0.031
298.15 K, 101.3 kPa, x1 = 0.093 | 0.616 ± 0.033
298.15 K, 101.3 kPa, x1 = 0.1279 | 0.642 ± 0.034
298.15 K, 101.3 kPa, x1 = 0.2139 | 0.708 ± 0.037
298.15 K, 101.3 kPa, x1 = 0.2908 | 0.792 ± 0.04
298.15 K, 101.3 kPa, x1 = 0.3809 | 0.884 ± 0.044
298.15 K, 101.3 kPa, x1 = 0.4902 | 1.03 ± 0.051
298.15 K, 101.3 kPa, x1 = 0.6224 | 1.259 ± 0.06
298.15 K, 101.3 kPa, x1 = 0.7858 | 1.564 ± 0.073
298.15 K, 101.3 kPa, x1 = 0.8923 | 1.768 ± 0.082
298.15 K, 101.3 kPa, x1 = 0.9667 | 1.923 ± 0.089
298.15 K, 101.31 kPa, x1 = 0.1531 | 0.66 ± 0.017
298.15 K, 101.31 kPa, x1 = 0.1961 | 0.695 ± 0.018
298.15 K, 101.31 kPa, x1 = 0.2939 | 0.792 ± 0.021
298.15 K, 101.31 kPa, x1 = 0.4044 | 0.917 ± 0.024
298.15 K, 101.31 kPa, x1 = 0.533 | 1.064 ± 0.028
298.15 K, 101.31 kPa, x1 = 0.6303 | 1.201 ± 0.031
298.15 K, 101.31 kPa, x1 = 0.7167 | 1.379 ± 0.036
298.15 K, 101.31 kPa, x1 = 0.817 | 1.586 ± 0.041
298.15 K, 101.31 kPa, x1 = 0.8886 | 1.737 ± 0.045
299 K, 101 kPa, x1 = 0.0375 | 0.9137
299 K, 101 kPa, x1 = 0.119 | 1.048
299 K, 101 kPa, x1 = 0.2599 | 1.264
299 K, 101 kPa, x1 = 0.3691 | 1.384
299 K, 101 kPa, x1 = 0.4937 | 1.964
299 K, 101 kPa, x1 = 0.7172 | 2.348
303.15 K, 101.3 kPa, x1 = 0.0439 | 0.544 ± 0.03
303.15 K, 101.3 kPa, x1 = 0.093 | 0.566 ± 0.031
303.15 K, 101.3 kPa, x1 = 0.1279 | 0.583 ± 0.031
303.15 K, 101.3 kPa, x1 = 0.2139 | 0.661 ± 0.035
303.15 K, 101.3 kPa, x1 = 0.2908 | 0.741 ± 0.038
303.15 K, 101.3 kPa, x1 = 0.3809 | 0.82 ± 0.042
303.15 K, 101.3 kPa, x1 = 0.4902 | 0.937 ± 0.047
303.15 K, 101.3 kPa, x1 = 0.6224 | 1.11 ± 0.054
303.15 K, 101.3 kPa, x1 = 0.7858 | 1.368 ± 0.065
303.15 K, 101.3 kPa, x1 = 0.8923 | 1.573 ± 0.074
303.15 K, 101.3 kPa, x1 = 0.9667 | 1.713 ± 0.08
308.15 K, 101.31 kPa, x1 = 0.1531 | 0.581 ± 0.015
308.15 K, 101.31 kPa, x1 = 0.1961 | 0.612 ± 0.016
308.15 K, 101.31 kPa, x1 = 0.2939 | 0.694 ± 0.018
308.15 K, 101.31 kPa, x1 = 0.4044 | 0.798 ± 0.021
308.15 K, 101.31 kPa, x1 = 0.533 | 0.92 ± 0.024
308.15 K, 101.31 kPa, x1 = 0.6303 | 1.03 ± 0.027
308.15 K, 101.31 kPa, x1 = 0.817 | 1.336 ± 0.035
308.15 K, 101.31 kPa, x1 = 0.8886 | 1.454 ± 0.038
318.15 K, 101.31 kPa, x1 = 0.1531 | 0.514 ± 0.013
318.15 K, 101.31 kPa, x1 = 0.1961 | 0.544 ± 0.014
318.15 K, 101.31 kPa, x1 = 0.2939 | 0.613 ± 0.016
318.15 K, 101.31 kPa, x1 = 0.533 | 0.804 ± 0.021
318.15 K, 101.31 kPa, x1 = 0.6303 | 0.894 ± 0.023
318.15 K, 101.31 kPa, x1 = 0.817 | 1.141 ± 0.03
318.15 K, 101.31 kPa, x1 = 0.8886 | 1.194 ± 0.031

CS(C)=O + CC(C)=O
302.4 K, 101 kPa
Settings | viscosity [mPa·s]
x1 = 0.0644 | 0.7031
x1 = 0.1924 | 0.809
x1 = 0.3826 | 1.14
x1 = 0.508 | 1.554
x1 = 0.6325 | 2.09
x1 = 0.8173 | 2.443

CC1(C)OCC(CO)O1 (stereo not given) + CC(O)CO
viscosity [mPa·s], 101 kPa
Settings | x1 = 0.1024 | x1 = 0.2011 | x1 = 0.2987 | x1 = 0.4005 | x1 = 0.5 | x1 = 0.6041 | x1 = 0.6998 | x1 = 0.8002 | x1 = 0.9017
298.15 K | 40.23 ± 0.92 | 35.6 ± 0.82 | 31.55 ± 0.73 | 27.24 ± 0.64 | 22.86 ± 0.54 | 19.38 ± 0.46 | 16.97 ± 0.4 | 14.5 ± 0.34 | 12.03 ± 0.28
308.15 K | 23.19 ± 0.56 | 20.46 ± 0.49 | 18.03 ± 0.44 | 15.53 ± 0.38 | 13.03 ± 0.32 | 11.25 ± 0.28 | 10.26 ± 0.25 | 9.248 ± 0.22 | 7.738 ± 0.19
318.15 K | 14.4 ± 0.35 | 12.56 ± 0.31 | 11.33 ± 0.28 | 9.726 ± 0.24 | 8.135 ± 0.2 | 7.174 ± 0.18 | 6.614 ± 0.16 | 6.244 ± 0.15 | 5.465 ± 0.13
